Measurements reported in PMC6934184, “Selective DNA-PKcs inhibition extends the therapeutic index of localized radiotherapy and chemotherapy” (The Journal of Clinical Investigation, 2019).

Target: T1, EPHB4 (Homo sapiens, UniProt P54760)
T1 construct: purchased Thermo Fisher Scientific (Life Technologies) SelectScreen
Assay: SelectScreen Z'LYTE
Assay type: biochemical
In short: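 NU5455 was profiled across the SelectScreen Broad panel of kinase activity and binding assays. Z'LYTE reactions such as CSF1R ran at apparent Km ATP, while the Adapta CAMK1 assay used ATP listed as 10. Values are given as percent.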

T1 sequence (P54760 16-987): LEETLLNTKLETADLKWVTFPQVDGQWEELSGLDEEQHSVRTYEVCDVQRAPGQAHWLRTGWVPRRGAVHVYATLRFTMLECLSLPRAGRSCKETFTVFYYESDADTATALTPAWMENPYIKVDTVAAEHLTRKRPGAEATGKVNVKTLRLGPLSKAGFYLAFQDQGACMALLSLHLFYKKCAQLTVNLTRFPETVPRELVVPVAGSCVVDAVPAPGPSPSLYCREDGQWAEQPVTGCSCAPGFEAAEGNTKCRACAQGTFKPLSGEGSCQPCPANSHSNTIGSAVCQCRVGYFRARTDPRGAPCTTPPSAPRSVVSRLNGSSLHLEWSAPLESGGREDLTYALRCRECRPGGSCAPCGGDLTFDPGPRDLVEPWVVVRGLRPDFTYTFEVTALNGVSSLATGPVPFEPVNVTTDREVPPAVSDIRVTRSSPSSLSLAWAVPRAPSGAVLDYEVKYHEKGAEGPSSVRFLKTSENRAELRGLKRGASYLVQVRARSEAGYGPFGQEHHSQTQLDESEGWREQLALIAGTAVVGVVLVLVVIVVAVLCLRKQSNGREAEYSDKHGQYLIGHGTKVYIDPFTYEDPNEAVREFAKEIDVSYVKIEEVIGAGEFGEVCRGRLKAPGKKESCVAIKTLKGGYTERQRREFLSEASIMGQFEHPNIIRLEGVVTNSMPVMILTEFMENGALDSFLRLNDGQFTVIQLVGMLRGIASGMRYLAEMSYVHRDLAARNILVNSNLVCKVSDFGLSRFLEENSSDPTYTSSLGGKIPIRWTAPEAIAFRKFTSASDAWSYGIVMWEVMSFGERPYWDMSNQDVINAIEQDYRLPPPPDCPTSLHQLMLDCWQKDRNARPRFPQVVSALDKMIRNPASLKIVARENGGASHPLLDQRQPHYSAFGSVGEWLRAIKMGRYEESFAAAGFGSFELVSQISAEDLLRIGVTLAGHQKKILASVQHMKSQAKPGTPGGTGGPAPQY

Compound: CN(C(=O)CN1CCOCC1)c1ccc2sc3c(-c4cccc5c(=O)cc(N6CC7CCC(C6)O7)oc45)cccc3c2c1 [NU5455]
- inhibition at 1 µM: -5.3%
